Measured values from PubChem BioAssay AID342 (DTP/NCI, 2004).
Where “and” joins values, the source holds several entries; their conditions need not be identical. Equal entries are not always repeated.

Test system: Swiss mice, Sarcoma 180 sc, mean tumor weight T/C
Assay: NCI In Vivo Anticancer Drug Screen. Data for tumor model Sarcoma 180 (subcutaneous) in Swiss mice
Details: endpoint: mean tumor weight, higher = larger tumour
Method in brief: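 Tumor-bearing mice, transplantable tumor; readout survival or tumor size; result = T/C, treated vs vehicle control.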

[1] = dose: 10.0 mg/kg/injection, schedule: Q01DX007 (ip), vehicle: carboxymethylcellulose (CMC)

## NNC(=O)CCC(N)C(=O)O (stereo not drawn)
dose: 5.75 mg/kg/injection, schedule: Q#A X014 (ip), vehicle: carboxymethylcellulose (CMC)
  T/C: 97 % of control
dose: 11.5 mg/kg/injection, schedule: Q#A X014 (ip), vehicle: carboxymethylcellulose (CMC)
  T/C: 90 % of control
dose: 23.0 mg/kg/injection, schedule: Q#A X014 (ip), vehicle: carboxymethylcellulose (CMC)
  T/C: 118 % of control
dose: 46.0 mg/kg/injection, schedule: Q#A X014 (ip), vehicle: carboxymethylcellulose (CMC)
  T/C: 70 % of control

## O=[N+]([O-])c1ccc(C=Nc2ccc3c(c2)C(Br)c2ccccc2-3)cc1 (stereo not drawn)
dose: 55.0 mg/kg/injection, schedule: Q#A X014 (ip), vehicle: saline
  T/C: 56 % of control
dose: 83.0 mg/kg/injection, schedule: Q#A X014 (ip), vehicle: saline
  T/C: 30 % of control and 37 % of control
dose: 110.0 mg/kg/injection, schedule: Q01DX007 (ip), vehicle: saline
  T/C: 88 % of control
dose: 125.0 mg/kg/injection, schedule: Q#A X014 (ip), vehicle: saline
  T/C: 28 % of control and 37 % of control
dose: 166.0 mg/kg/injection, schedule: Q01DX007 (ip), vehicle: saline
  T/C: 85 % of control
dose: 187.5 mg/kg/injection, schedule: Q#A X014 (ip), vehicle: saline
  T/C: 18 % of control
dose: 250.0 mg/kg/injection, schedule: Q01DX007 (ip), vehicle: saline
  T/C: 94 % of control
dose: 375.0 mg/kg/injection, schedule: Q01DX007 (ip), vehicle: saline
  T/C: 61 % of control

## CC(C)OC(=O)C1(N)CCCC1
dose: 33.0 mg/kg/injection, schedule: Q#A X014 (ip), vehicle: saline
  T/C: 61 % of control
dose: 50.0 mg/kg/injection, schedule: Q#A X014 (ip), vehicle: saline
  T/C: 67 % of control
dose: 75.0 mg/kg/injection, schedule: Q#A X014 (ip), vehicle: saline
  T/C: 49 % of control
dose: 112.5 mg/kg/injection, schedule: Q#A X014 (ip), vehicle: saline
  T/C: 20 % of control

## Nc1ccc2c(c1)Cc1cc(NC=O)ccc1-2
dose: 55.5 mg/kg/injection, schedule: Q01DX007 (ip), vehicle: carboxymethylcellulose (CMC)
  T/C: 98 % of control
dose: 83.3 mg/kg/injection, schedule: Q01DX007 (ip), vehicle: carboxymethylcellulose (CMC)
  T/C: 52 % of control
dose: 125.0 mg/kg/injection, schedule: Q01DX007 (ip), vehicle: carboxymethylcellulose (CMC)
  T/C: 72 % of control
dose: 187.5 mg/kg/injection, schedule: Q01DX007 (ip), vehicle: carboxymethylcellulose (CMC)
  T/C: 36 % of control

## CCN(CC)CCNc1ccc([N+](=O)[O-])c2sc3ccccc3c(=O)c12
dose: 14.0 mg/kg/injection, schedule: Q#A X014 (ip), vehicle: saline
  T/C: 71 % of control
dose: 21.0 mg/kg/injection, schedule: Q#A X014 (ip), vehicle: saline
  T/C: 65 % of control
dose: 31.5 mg/kg/injection, schedule: Q#A X014 (ip), vehicle: saline
  T/C: 65 % of control
dose: 47.5 mg/kg/injection, schedule: Q#A X014 (ip), vehicle: saline
  T/C: 34 % of control

## O=c1cn[nH]c(=O)[nH]1
dose: 62.5 mg/kg/injection, schedule: Q#A X014 (ip), vehicle: carboxymethylcellulose (CMC)
  T/C: 103 % of control
dose: 125.0 mg/kg/injection, schedule: Q#A X014 (ip), vehicle: carboxymethylcellulose (CMC)
  T/C: 77 % of control
dose: 250.0 mg/kg/injection, schedule: Q#A X014 (ip), vehicle: carboxymethylcellulose (CMC)
  T/C: 73 % of control
dose: 500.0 mg/kg/injection, schedule: Q#A X014 (ip), vehicle: carboxymethylcellulose (CMC)
  T/C: 45 % of control

## CCC(=O)O[C@H]1CC[C@H]2[C@@H]3CCC4=CC(=O)CC[C@]4(C)[C@H]3[C@@H](O)C[C@]12C
dose: 12.5 mg/kg/injection, schedule: Q#A X014 (sc), vehicle: steriod suspending solution
  T/C: 96 % of control
dose: 125.0 mg/kg/injection, schedule: Q#A X014 (sc), vehicle: steriod suspending solution
  T/C: 88 % of control
dose: 250.0 mg/kg/injection, schedule: Q#A X014 (sc), vehicle: steriod suspending solution
  T/C: 94 % of control

## CC1=C(CO)C(=O)O[C@@H]([C@@H](C)[C@H]2CC[C@H]3[C@@H]4C[C@H]5O[C@]56[C@@H](O)C=CC(=O)[C@]6(C)[C@H]4CC[C@]23C)C1
[1]
  T/C: 64 % of control
dose: 13.3 mg/kg/injection, schedule: Q01DX007 (ip), vehicle: saline
  T/C: 97 % of control
dose: 13.7 mg/kg/injection, schedule: Q01DX007 (ip), vehicle: saline
  T/C: 85 % of control
dose: 16.0 mg/kg/injection, schedule: Q01DX007 (ip), vehicle: saline
  T/C: 77 % of control
dose: 16.0 mg/kg/injection, schedule: Q01DX007 (sc), vehicle: olive oil, sesame oil, peanut oil
  T/C: 90 % of control
dose: 16.0 mg/kg/injection, schedule: Q01DX007 (sc), vehicle: steriod suspending solution
  T/C: 93 % of control
dose: 18.0 mg/kg/injection, schedule: Q01DX007 (ip), vehicle: saline
  T/C: 60 % of control
dose: 24.0 mg/kg/injection, schedule: Q01DX007 (ip), vehicle: saline
  T/C: 54 % of control
dose: 24.0 mg/kg/injection, schedule: Q01DX007 (sc), vehicle: olive oil, sesame oil, peanut oil
  T/C: 109 % of control
dose: 24.0 mg/kg/injection, schedule: Q01DX007 (sc), vehicle: steriod suspending solution
  T/C: 66 % of control
dose: 33.0 mg/kg/injection, schedule: Q01DX007 (ip), vehicle: saline
  T/C: 25 % of control
dose: 36.0 mg/kg/injection, schedule: Q01DX007 (sc), vehicle: olive oil, sesame oil, peanut oil
  T/C: 77 % of control
dose: 36.0 mg/kg/injection, schedule: Q01DX007 (sc), vehicle: steriod suspending solution
  T/C: 79 % of control

## Cc1n[nH]c(=O)[nH]c1=O
dose: 500.0 mg/kg/injection, schedule: Q01DX007 (ip), vehicle: other
  T/C: 95 % of control
dose: 750.0 mg/kg/injection, schedule: Q01DX007 (ip), vehicle: other
  T/C: 83 % of control

## C#C[C@]1(OC(C)=O)CC[C@H]2[C@@H]3CC[C@H]4CC=CC[C@]4(C)[C@H]3CC[C@@]21C
dose: 2.5 mg/kg/injection, schedule: Q01DX007 (sc), vehicle: steriod suspending solution
  T/C: 84 % of control
dose: 5.0 mg/kg/injection, schedule: Q01DX007 (sc), vehicle: steriod suspending solution
  T/C: 71 % of control
dose: 10.0 mg/kg/injection, schedule: Q01DX007 (sc), vehicle: steriod suspending solution
  T/C: 102 % of control

## CCCCSc1ncnc2nc[nH]c12
dose: 44.0 mg/kg/injection, schedule: Q01DX007 (ip), vehicle: carboxymethylcellulose (CMC)
  T/C: 55 % of control
dose: 51.0 mg/kg/injection, schedule: Q01DX007 (ip), vehicle: carboxymethylcellulose (CMC)
  T/C: 53 % of control
dose: 93.0 mg/kg/injection, schedule: Q01DX007 (ip), vehicle: carboxymethylcellulose (CMC)
  T/C: 41 % of control

## O=C(O)c1ccc(N=NSc2ncnc3nc[nH]c23)cc1O
dose: 0.2 mg/kg/injection, schedule: Q01DX007 (ip), vehicle: carboxymethylcellulose (CMC)
  T/C: 101 % of control
dose: 0.5 mg/kg/injection, schedule: Q01DX007 (ip), vehicle: carboxymethylcellulose (CMC)
  T/C: 115 % of control
dose: 1.0 mg/kg/injection, schedule: Q01DX007 (ip), vehicle: carboxymethylcellulose (CMC)
  T/C: 108 % of control
dose: 8.0 mg/kg/injection, schedule: Q01DX007 (ip), vehicle: carboxymethylcellulose (CMC)
  T/C: 9 % of control

## Cc1cc(=O)[nH]c(N=Nc2c(O)[nH]c3ccccc23)n1
dose: 222.0 mg/kg/injection, schedule: Q01DX007 (ip), vehicle: saline
  T/C: 58 % of control
dose: 333.0 mg/kg/injection, schedule: Q01DX007 (ip), vehicle: saline
  T/C: 75 % of control
dose: 500.0 mg/kg/injection, schedule: Q01DX007 (ip), vehicle: saline
  T/C: 43 % of control
dose: 750.0 mg/kg/injection, schedule: Q01DX007 (ip), vehicle: saline
  T/C: 59 % of control

## Cn1cc(F)c(=O)[nH]c1=O
[1]
  T/C: 99 % of control and 112 % of control
dose: 20.0 mg/kg/injection, schedule: Q01DX007 (ip), vehicle: carboxymethylcellulose (CMC)
  T/C: 88 % of control and 94 % of control
dose: 80.0 mg/kg/injection, schedule: Q01DX007 (ip), vehicle: carboxymethylcellulose (CMC)
  T/C: 95 % of control

## CC1CN(C(=O)CCl)c2ccccc2N1C(=O)CCl (stereo not drawn)
dose: 2.0 mg/kg/injection, schedule: Q01DX007 (ip), vehicle: carboxymethylcellulose (CMC)
  T/C: 121 % of control
dose: 4.0 mg/kg/injection, schedule: Q01DX007 (ip), vehicle: carboxymethylcellulose (CMC)
  T/C: 114 % of control

## CCCCCC[C@@H](O)C/C=C\CCCCCCCC(=O)O
dose: 31.3 mg/kg/injection, schedule: Q01DX007 (ip), vehicle: saline
  T/C: 59 % of control
dose: 62.5 mg/kg/injection, schedule: Q01DX007 (ip), vehicle: saline
  T/C: 95 % of control
dose: 125.0 mg/kg/injection, schedule: Q01DX007 (ip), vehicle: saline
  T/C: 87 % of control
